For the test, the target named is interaction of human SOS1 (SOS1) with human K-RasG12C (Homo sapiens (Human), UniProt Q07889). In words: Biochemical assay: hK-RasG12C interaction assay with hSOS1 (HTRF). Conditions: GST-hK-RasG12C with His-hSOS1, 60 min incubation at 20° C., mean, read-out: K-RasG12C - SOS interaction assay IC50 (mean). It is filed as binding. A digest of the protocol: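 Compounds, duplicates at 11 concentrations from 0.073 nM to 20 µM, were preincubated 2 min with 10 nM GST-hK-RasG12C, then 20 nM His-hSOS1 was added, all at 20 °C. After 60 min, 665/620 nm HTRF ratio normalized to DMSO and SOS1-free controls; IC50 by 4-parameter fit.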
interaction of human SOS1 (SOS1) with human K-RasG12C, sequence (Q07889 564-1049 limits assumed): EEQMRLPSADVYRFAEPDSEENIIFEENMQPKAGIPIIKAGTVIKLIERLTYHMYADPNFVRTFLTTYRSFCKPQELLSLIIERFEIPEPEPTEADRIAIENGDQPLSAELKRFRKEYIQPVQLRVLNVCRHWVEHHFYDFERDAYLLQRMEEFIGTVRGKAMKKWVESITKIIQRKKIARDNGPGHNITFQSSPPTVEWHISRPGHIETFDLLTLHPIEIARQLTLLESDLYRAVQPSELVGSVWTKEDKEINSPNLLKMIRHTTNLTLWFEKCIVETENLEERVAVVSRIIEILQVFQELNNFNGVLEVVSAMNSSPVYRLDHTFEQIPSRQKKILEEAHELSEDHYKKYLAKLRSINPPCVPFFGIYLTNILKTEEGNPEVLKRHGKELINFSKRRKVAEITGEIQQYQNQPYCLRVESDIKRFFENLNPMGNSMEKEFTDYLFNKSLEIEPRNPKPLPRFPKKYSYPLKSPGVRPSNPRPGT
As a reminder, the IC50 is the point on the concentration scale where inhibition reaches its midpoint. Turning to `Cc1nc(N[C@H](C)c2cccc(C(F)(F)F)c2C)c2cc(P3(=O)CCN(C(=O)C4(C#N)CC4)CC3)ncc2n1` [Example 167, 1-{4-[2-methyl-4-{{(1R)-1-[2-methyl-3-(trifluoromethyl)phenyl]ethyl}amino)pyrido[3,4-d]pyrimidin-6-yl]-4-oxo-1,4lambda^5-azaphosphinane-1-carbonyl}cyclopropane-1-carbonitrile], the IC50 was 12.7 nM.
To `Cc1nc(N[C@H](C)c2cccc(C(F)(F)F)c2C)c2cc(P3(=O)CCN(C(=O)C4(F)CC4)CC3)ncc2n1` [Example 168, 1-(1-fluorocyclopropane-1-carbonyl)-4-[2-methyl-4-({(1R)-1-[2-methyl-3-(trifluoromethyl)phenyl]ethyl}amino)pyrido[3,4-d]pyrimidin-6-yl]-1,4lambda^5-azaphosphinan-4-one] belongs 12 nM; to `Cc1nc(N[C@H](C)c2cccc(C(F)(F)F)c2C)c2cc(P3(=O)CCN(C(=O)C4(C(F)F)CC4)CC3)ncc2n1` [Example 169, 1-[1-(difluoromethyl)cyclopropane-1-carbonyl]-4-[2-methyl-4-({(1R)-1-[2-methyl-3-(trifluoromethyl)phenyl]ethyl}amino)pyrido[3,4-d]pyrimidin-6-yl]-1,4lambda^5-azaphosphinan-4-one], 9.55 nM.
As for `Cc1nc(N[C@H](C)c2cccc(C(F)(F)F)c2C)c2cc(P3(=O)CCN(C(=O)C4CC(F)(F)C4)CC3)ncc2n1` [Example 170, 1-(3,3-difluorocyclobutane-1-carbonyl)-4-[2-methyl-4-({(1R)-1-[2-methyl-3-(trifluoromethyl)phenyl]ethyl}amino)pyrido[3,4-d]pyrimidin-6-yl]-1,4lambda^5-azaphosphinan-4-one], the figure is 11.3 nM; as for `Cc1nc(N[C@H](C)c2cccc(C(F)(F)F)c2C)c2cc(P3(=O)CCN(C(=O)C(C)C)CC3)ncc2n1` [Example 171, 4-[2-methyl-4-{{(1R)-1-[2-methyl-3-(trifluoromethyl)phenyl]ethyl}amino)pyrido[3,4-d]pyrimidin-6-yl]-1-(2-methylpropanoyl)-1,4lambda^5-azaphosphinan-4-one], 6.76 nM; as for `Cc1nc(N[C@H](C)c2cccc(C(F)(F)C(C)(C)O)c2F)c2cc(P3(=O)CCN(C(=O)C4CC4)CC3)ncc2n1` [Example 172, 1-(cyclopropanecarbonyl)-4-[4-{{(1R)-1-[3-(1,1-difluoro-2-hydroxy-2-methylpropyl)-2-fluorophenyl]ethyl}amino)-2-methylpyrido[3,4-d]pyrimidin-6-yl]-1,4lambda^5-azaphosphinan-4-one], 4.78 nM.
As for `Cc1nc(N[C@H](C)c2cccc(C(F)(F)F)c2C)c2cc(P3(=O)CCN(C(=O)C4(O)CC4)CC3)ncc2n1` [Example 173, 1-(1-hydroxycyclopropane-1-carbonyl)-4-[2-methyl-4-({(1R)-1-[2-methyl-3-(trifluoromethyl)phenyl]ethyl}amino)pyrido[3,4-d]pyrimidin-6-yl]-1,4lambda^5-azaphosphinan-4-one], the figure is 5.62 nM; as for `Cc1nc(N[C@H](C)c2cccc(C(F)(F)F)c2C)c2cc(P3(=O)CCN(C(=O)C4CC4)CC3)ncc2n1` [Example 174, 1-(cyclopropanecarbonyl)-4-[2-methyl-4-({(1R)-1-[2-methyl-3-(trifluoromethyl)phenyl]ethyl}amino)pyrido[3,4-d]pyrimidin-6-yl]-1,4lambda^5-azaphosphinan-4-one], 3.89 nM.
For `Cc1nc(N[C@H](C)c2cccc(C(F)(F)F)c2C)c2cc(P3(=O)CCN(C(=O)c4cnn(C)c4)CC3)ncc2n1` [Example 175, 4-[2-methyl-4-{{(1R)-1-[2-methyl-3-(trifluoromethyl)phenyl]ethyl}amino)pyrido[3,4-d]pyrimidin-6-yl]-1-(1-methyl-1H-pyrazole-4-carbonyl)-1,4lambda^5-azaphosphinan-4-one], the IC50 was 9.07 nM.
To `CO[C@@H](C)C(=O)N1CCP(=O)(c2cc3c(N[C@H](C)c4cccc(C(F)(F)F)c4C)nc(C)nc3cn2)CC1` [Example 176, 1-[(2S)-2-methoxypropanoyl]-4-[2-methyl-4-{{(1R)-1-[2-methyl-3-(trifluoromethyl)phenyl]ethyl}amino)pyrido[3,4-d]pyrimidin-6-yl]-1,4lambda^5-azaphosphinan-4-one] belongs 6.82 nM; to `COCC(=O)N1CCP(=O)(c2cc3c(N[C@H](C)c4cccc(C(F)(F)F)c4C)nc(C)nc3cn2)CC1` [Example 177, 1-(methoxyacetyl)-4-[2-methyl-4-({(1R)-1-[2-methyl-3-(trifluoromethyl)phenyl]ethyl}amino)pyrido[3,4-d]pyrimidin-6-yl]-1,4lambda^5-azaphosphinan-4-one], 5.01 nM; to `Cc1nc(N[C@H](C)c2cccc(C(F)(F)F)c2C)c2cc(P3(=O)CCN(C(=O)C4(CO)CC4)CC3)ncc2n1` [Example 178, 1-[1-(hydroxymethyl)cyclopropane-1-carbonyl]-4-[2-methyl-4-{{(1R)-1-[2-methyl-3-(trifluoromethyl)phenyl]ethyl}amino)pyrido[3,4-d]pyrimidin-6-yl]-1,4lambda^5-azaphosphinan-4-one], 7.94 nM.
To `Cc1nc(N[C@H](C)c2cccc(C(F)(F)CNS(C)(=O)=O)c2F)c2cc(P3(=O)CCN(C(=O)C4CC4)CC3)ncc2n1` [Example 179, N-(2-{3-[(1R)-1-({6-[1-(cyclopropanecarbonyl)-4-oxo-1,4lambda^5-azaphosphinan-4-yl]-2-methylpyrido[3,4-d]pyrimidin-4-yl}amino)ethyl]-2-fluorophenyl}-2,2-difluoroethyl)methanesulfonamide] belongs 3.68 nM; to `CC(=O)NCC(F)(F)c1cccc([C@@H](C)Nc2nc(C)nc3cnc(P4(=O)CCN(C(=O)C5CC5)CC4)cc23)c1F` [Example 180, N-(2-{3-[(1R)-1-({6-[1-(cyclopropanecarbonyl)-4-oxo-1,4lambda^5-azaphosphinan-4-yl]-2-methylpyrido[3,4-d]pyrimidin-4-yl}amino)ethyl]-2-fluorophenyl}-2,2-difluoroethyl)acetamide], 4.6 nM.
As for `Cc1nc(N[C@H](C)c2cccc(C(F)(F)CN(C)S(C)(=O)=O)c2F)c2cc(P3(=O)CCN(C(=O)C4CC4)CC3)ncc2n1` [Example 181, N-(2-{3-[(1R)-1-({6-[1-(cyclopropanecarbonyl)-4-oxo-1,4lambda^5-azaphosphinan-4-yl]-2-methylpyrido[3,4-d]pyrimidin-4-yl}amino)ethyl]-2-fluorophenyl}-2,2-difluoroethyl)-N-methylmethanesulfonamide], the figure is 2.95 nM.
For `CC(=O)N(C)CC(F)(F)c1cccc([C@@H](C)Nc2nc(C)nc3cnc(P4(=O)CCN(C(=O)C5CC5)CC4)cc23)c1F` [Example 182, N-(2-{3-[(1R)-1-({6-[1-(cyclopropanecarbonyl)-4-oxo-1,4lambda^5-azaphosphinan-4-yl]-2-methylpyrido[3,4-d]pyrimidin-4-yl}amino)ethyl]-2-fluorophenyl}-2,2-difluoroethyl)-N-methylacetamide], the 50% inhibitory concentration (IC50) was found to be 3.95 nM.
Consider `Cc1nc(N[C@H](C)c2cccc(C(F)F)c2F)c2cc(P3(=O)CCN(C(N)=O)CC3)ncc2n1` [Example 183], for which the IC50 turned out to be 8.38 nM.
To `Cc1nc(N[C@H](C)c2cccc(C(F)(F)F)c2C)c2cc(P3(=O)CCN(C(=O)NC4CC4)CC3)ncc2n1` [Example 184] belongs 5.62 nM; to `Cc1nc(N[C@H](C)c2cccc(C(F)(F)F)c2C)c2cc(P3(=O)CCN(C(=O)NCC(F)F)CC3)ncc2n1` [Example 185], 3.86 nM.
Turning to `Cc1nc(N[C@H](C)c2cccc(C(F)(F)F)c2C)c2cc(P3(=O)CCN(C(N)=O)CC3)ncc2n1` [Example 186], the IC50 was 4.71 nM.
As for `CCOC(=O)N1CCP(=O)(c2cc3c(N[C@H](C)c4cccc(C(F)F)c4F)nc(C)nc3cn2)CC1` [Example 187], the figure is 12 nM.
To `Cc1nc(N[C@H](C)c2cccc(C(F)(F)F)c2C)c2cc(P3(=O)CCN(C(=O)N(C)C)CC3)ncc2n1` [Example 188] belongs 6.34 nM.
To `CCOC(=O)N1CCP(=O)(c2cc3c(N[C@H](C)c4cccc(C(F)(F)F)c4C)nc(C)nc3cn2)CC1` [Example 189] belongs 20.6 nM; to `CC(=O)N1CCP(=O)(c2cc3c(N[C@H](C)c4cccc(C(F)F)c4C)nc(C)nc3cn2)CC1` [Example 190], 5.9 nM.
For `CC(=O)N1CCP(=O)(c2cc3c(N[C@H](C)c4cccc(C(F)(F)F)c4Cl)nc(C)nc3cn2)CC1` [Example 191], the IC50 turned out to be 8.09 nM.
As for `CC(=O)N1CCP(=O)(c2cc3c(N[C@H](C)c4cccc(C(F)(F)F)c4)nc(C)nc3cn2)CC1` [Example 192], the figure is 11.7 nM.
`CC(=O)N1CCP(=O)(c2cc3c(N[C@H](C)c4cccc(C(F)(F)C(C)(C)O)c4F)nc(C)nc3cn2)CC1` [Example 193]: the IC50 worked out at 4.1 nM.
As to `CC(=O)N1CCP(=O)(c2cc3c(N[C@H](C)c4cccc(C(F)(F)F)c4C)nc(C(F)(F)F)nc3cn2)CC1` [Example 194], the IC50 is 12.1 nM.
To `CC(=O)N1CCP(=O)(c2cc3c(N[C@H](C)c4cccc(C(F)(F)F)c4C)nc(C(F)F)nc3cn2)CC1` [Example 195] belongs 6.56 nM.
`CC(=O)N1CCP(=O)(c2cc3c(N[C@H](C)c4cccc(C(F)(F)F)c4C)nc(Cl)nc3cn2)CC1` [Example 196]: the IC50 amounted to 2.38 nM.
To `CC(=O)N1CCP(=O)(c2ccc3nc(C)nc(N[C@H](C)c4cccc(C(F)(F)F)c4C)c3c2)CC1` [Example 197] belongs 7.4 nM; to `CC(=O)NCC(F)(F)c1cccc([C@@H](C)Nc2nc(C)nc3cnc(P4(=O)CCN(C(C)=O)CC4)cc23)c1F` [Example 199], 4.61 nM.
As for `CC(=O)N1CCP(=O)(c2cc3c(N[C@H](C)c4cccc(C(F)(F)CN(C)S(C)(=O)=O)c4F)nc(C)nc3cn2)CC1` [Example 200], the figure is 3.95 nM; as for `CC(=O)N(C)CC(F)(F)c1cccc([C@@H](C)Nc2nc(C)nc3cnc(P4(=O)CCN(C(C)=O)CC4)cc23)c1F` [Example 201], 5.81 nM.
